# Test results from patent US20230202973A1, “BARNESIN A, DERIVATIVES AND USES THEREOF” (Leibniz-Institut Für Naturstoff-Forschung Und …, priority 2018, published 2023).
# Square brackets hold non-standard residues; d marks the D form. Peptide text beside a SMILES is read from it. * marks the point of attachment. Sta = CC(C)C[C@H](N)[C@@H](O)CC(=O)O; Isovaleryl = CC(C)CC(=O)*
# Legend:
# [1] = Microsome stability assay; assay type: in vitro ADME; settings: for Area rel. [%] (liver microsomes, PC): positive control, relative to t=0; for Area rel. [%] (liver microsomes, NC): 90 min, 1 µM, pH 7.4
# Procedure: Microsome Stability Assay The liver is the main organ of drug metabolism in the body. Subcellular fractions such as liver microsomes are useful in vitro models of hepatic clearance as they contain many of the drug metabolising enzymes found in the liver. Liver microsomes are subcellular fractions which contain membrane bound drug metabolising enzymes. The microsomes are incubated with the test compound at 37° C. in the presence of the co-factors, which initiates the reaction. The reaction is terminated by the addition of organic solvents containing internal standard. Following centrifugation, the supernatant is analysed on the LC-MS/MS. The disappearance of test compound is monitored over certain time period. Here, a microsome stability assay was used to investigate the metabolism of the compounds; using this assay it is possible to measure in vitro the intrinsic clearance or to identify metabolites formed. For a standard assay the following solutions were used: 360 μL Microsomal solution (1.1 mg/mL in phosphate buffer), 360 μL NADP-regeneration mix (containing NADP (10 mM), MgCl2 (50 mM), glucose-6-phosphate (50 mM), glucose-6-phosphate dehydrogenase (50 U/ml)) and 40 μL phosphate buffer (100 mM, pH 7.4). Diclofenac (10 μL, 200 μM) was used as positive control (360 μL Microsomal solution, 360 μL NADP-regeneration mix and 40 μL Phosphate buffer) and phosphate buffer (360 μL Microsomal solution, 360 μL NADP-regeneration mix) served as negative control. […] The following procedure was applied: 40 μL of the working solution was added to a pre-incubated solution containing the microsomal solution and the NADP-regeneration mix at 37° C./1500 rpm. Samples were prepared as follows: […] Samples were mixed at 1500 rpm for 2 min, centrifuged for 2 min at 16.1 krcf. 5 uL of each sample was injected to a UPLC/HRMS system and the peak areas of the extracted ion chromatograms were determined
# [2] = biological target: T1, thermolysin (Bacillus thermoproteolyticus, UniProt P00800); assay: Protease assay with azocasein: thermolysin; assay type: biochemical; settings: 10 mM
# T1 construct: purchased Sigma-Aldrich P1512
# T1 sequence (P00800 233-548): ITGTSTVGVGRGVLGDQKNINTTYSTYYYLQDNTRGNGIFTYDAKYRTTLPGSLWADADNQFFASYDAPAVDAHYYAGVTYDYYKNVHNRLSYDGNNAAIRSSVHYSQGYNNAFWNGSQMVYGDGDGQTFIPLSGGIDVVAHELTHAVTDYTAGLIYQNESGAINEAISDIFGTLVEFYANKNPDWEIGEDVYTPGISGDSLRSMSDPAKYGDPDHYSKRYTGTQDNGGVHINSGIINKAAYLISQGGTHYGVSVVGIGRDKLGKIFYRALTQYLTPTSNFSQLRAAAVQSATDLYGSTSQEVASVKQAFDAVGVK
# Procedure: (§1) Protease Assays with azocasein: Protease inhibition assays against the proteases papain, ficin, trypsin, pepsin and thermolysin were performed according to the protocol of Garcia-Carreño (loc. cit.) in a reaction buffer containing 25 mM TRIS-HCl, 0.15 M NaCl, pH 7.2 (or pH 3.5 for aspartic protease). The total assay volume was 47 μL buffer with 2 μL of the protease as well as 1 μL of suitable inhibitor or corresponding inhibitor solvent (100% MeoH or water). Final concentration of proteases was as follows: 2 mg/mL for papain (Sigma-Aldrich, P4762), 600 μg/mL for ficin (Sigma-Aldrich, F6008), 80 μg/mL for trypsin (Thermo Fisher, 23266), 60 mg/mL for pepsin (Sigma-Aldrich P6887)) and 2 μg/mL for thermolysin (Sigma-Aldrich, P1512).
# (§2) Inhibitors were dissolved in 100% MeOH or water and added to the assay (1 μL); final concentration: 2% MeOH. Samples of control inhibitors were prepared as follows: (1) serine protease (trypsin): PMFS (2 mM) and soybean trypsin inhibitor (240 μM) (Sigma-Aldrich, T1021), (2) cysteine proteases (papain and ficin): iodacetamide (2 mM), (3) […] (pepsin): pepstatin A (1 μg/mL) (Sigma-Aldrich, P4265), (4) metalloprotease (thermolysin): EDTA (10 mM). […] Negative controls were performed with protease alone (without inhibitor) and MeOH at a final concentration of 2% (reference for activity of 100%). Extract absorbance controls were performed using inhibitor (1 μL in MeOH) without protease. Blanks were performed using 49 μL buffer and 1 μL MeOH.
# (§3) Samples were incubated with buffer and suitable inhibitor (or without for negative controls) for 1 h at r.t. and the reaction was started afterward by adding 50 μl of […] substrate and incubated for 1 h at 37° C. After stopping the reaction with trichloracetic acid (TCA), the separation of the precipitate was accomplished by centrifugation at 6500 g for 5 min. The hydrolyzed substrate supernatant was incubated in an equal volume of 0.5 N NaOH for 5 min and the absorbance was measured at 440 nm. OD values of the protease control without inhibitor were used as reference for a 100% activity.
# (§4) The log IC50 values were determined using the standard curves analyzing tool with four parameter logistic equation of SigmaPlot12 with technical triplicates. Propagation of error was calculated using the standard error and log IC50 values where the equation of error propagation is defined as Δy=0.43Δx/x.
# [3] = biological target: hCatL (Homo sapiens, UniProt P07711); assay: Fluorescence-based activity test against cathepsin L (Cbz-Phe-Arg-AMC); assay type: biochemical; set-up: dose or concentration left out as unconfirmed
# hCatL, sequence (P07711 114-333): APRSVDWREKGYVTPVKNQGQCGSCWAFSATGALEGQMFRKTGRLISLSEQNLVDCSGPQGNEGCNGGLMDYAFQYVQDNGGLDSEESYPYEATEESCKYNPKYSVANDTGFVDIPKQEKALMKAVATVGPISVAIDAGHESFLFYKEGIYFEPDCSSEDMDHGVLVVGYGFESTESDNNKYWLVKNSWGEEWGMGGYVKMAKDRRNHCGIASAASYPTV
# Procedure: (§5) Activity Tests Against Cathepsin B, Cathepsin L and Rhodesain.
# (§6) The determination of the activity of the inhibitors against hCatL and RD was performed in fluorescence-based assays in accordance with the assays described in Giroud et al., ChemMedChem 12 (2017), 257-270 and Schirmeister, Bioorganic & Medicinal Chemistry Letters 27 (2017) 45-50. The biological activities against hCatL were determined using Cbz-Phe-Arg-AMC as substrate, which releases AMC (7-amino-4-methylcoumarin) after amide bond cleavage by the enzyme. The proteolytic activity of the enzyme can be monitored spectrophotometrically by the increase of fluorescence intensity by release of AMC (emission at 460 nm) upon hydrolysis. An initial screen at an inhibitor concentration […] was performed to identify ligands with an inhibition of hCatL and RD higher than 80%.
# [4] = biological target: Cathepsin B (Homo sapiens, UniProt P07858); assay: Activity test against cathepsin B (initial screen, Table 5); assay type: biochemical; set-up: dose or concentration left out as unconfirmed
# Procedure: as §5, §6
# [5] = Glutathione (GSH) assay; assay type: in vitro ADME; settings: relative to t=0; for Area rel. [%] (GSH assay, NC): negative control: test item in phosphate buffer without GSH, time 90 min; for Area rel. [%] (GSH assay): with GSH, 37° C.
# Procedure: Procedure: A standard GSH assay includes a phosphate buffer (720 μL), a GSH solution (40 μL, 100 mM) and the test solution of the test compound (20 μM in 10% DMSO in phosphate buffer (100 mM, pH 7.4)). As negative control (NC) serves the test item (20 μM in 10% DMSO in phosphate buffer (100 mM, pH 7.4) in phosphate buffer (760 μL).
# Samples are prepared as follows: phosphate buffer (720 μL) and GSH solution (40 μL, 100 mM) were preincubated at 37° C., and 40 μL of the test item solution (or internal standard) added. Then […] of the assay mixture were mixed with 100 μL ACN were at the following time points: t=0, 30 and 90 min; in case of the test item, t=0 and 90 min in case of PC or NC. The samples were mixed for 2 min at 150 rpm, centrifuged at 16.1 (krcf). 5 μL of each samples were injected to a UPLC/HRMS system. The peak areas of the extracted ion chromatograms were determined using the standard software.
# [6] = biological target: T2, pepsin (Sus scrofa, UniProt P00791); assay: Protease assay with azocasein: pepsin; assay type: biochemical; settings: 1 μg/mL
# T2 construct: purchased Sigma-Aldrich P6887
# T2 sequence (P00791 60-385): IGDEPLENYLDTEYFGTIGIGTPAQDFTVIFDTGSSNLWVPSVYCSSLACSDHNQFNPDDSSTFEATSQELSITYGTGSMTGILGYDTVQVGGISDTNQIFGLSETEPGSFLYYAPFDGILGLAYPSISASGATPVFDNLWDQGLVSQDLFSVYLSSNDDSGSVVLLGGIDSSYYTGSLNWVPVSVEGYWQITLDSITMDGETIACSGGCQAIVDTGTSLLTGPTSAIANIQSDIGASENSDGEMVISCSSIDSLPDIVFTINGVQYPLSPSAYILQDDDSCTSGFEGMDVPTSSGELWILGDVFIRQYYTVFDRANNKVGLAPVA
# Procedure: as §1, §2, §3, §4
structure (smiles),measurement,setting,value
"O=C(O)Cc1ccccc1Nc1c(Cl)cccc1Cl [Diclo, Diclofenac, reference compound]","Area rel. [%] (liver microsomes, PC)",[1]; time 10 min,49.0%
same,"Area rel. [%] (liver microsomes, PC)",[1]; time 35 min,3.8%
"O=C(O)CN(CCN(CC(=O)O)CC(=O)O)CC(=O)O [EDTA, reference compound]","inhibited enzyme activity (thermolysin), control inhibitor",[2],> 95%
CCCCC/C=C/C(=O)N[C@@H](Cc1ccc(O)cc1)C(=O)N[C@H](/C=C/C(=O)O)CCCNC(=N)N [drawing 45],inhibition,[3],95%
same,inhibition,[4],50%
CCCCC/C=C/C(=O)N[C@@H](Cc1ccc(O)cc1)C(=O)N[C@@H](/C=C/C(=O)O)CCCCN [drawing 46],inhibition,[3],96%
same,inhibition,[4],73%
CCCCC/C=C/C(=O)N[C@@H](Cc1ccccc1)C(=O)N[C@H](/C=C/C(=O)O)CCCNC(=N)N [drawing 47],inhibition,[3],90%
same,inhibition,[4],41%
CCCCC/C=C/C(=O)N[C@@H](Cc1ccc(O)cc1)C(=O)N[C@@H](/C=C/C(=O)O)CCCNC(=N)N [drawing 48],inhibition,[3],20%
same,inhibition,[4],15%
CCCCCCCC(=O)N[C@@H](Cc1ccc(O)cc1)C(=O)N[C@H](/C=C/C(=O)O)CCCNC(=N)N [drawing 50],inhibition,[3],80%
same,inhibition,[4],30%
CCCCC/C=C/C(=O)N[C@@H](Cc1ccc(O)cc1)C(=O)N[C@H](/C=C/C(=O)O)CCCNC(=N)N [drawing 51],"Area rel. [%] (GSH assay, NC)",[5],91.9%
same,Area rel. [%] (GSH assay),"[5]; pH 7.4, time 30 min",93.3%
same,Area rel. [%] (GSH assay),"[5]; pH 7.4, time 90 min",94.2%
CCCCC/C=C/C(=O)N[C@@H](Cc1ccc(O)cc1)C(=O)N[C@@H](/C=C/C(=O)O)CCCCN [drawing 52],"Area rel. [%] (GSH assay, NC)",[5],103.9%
same,Area rel. [%] (GSH assay),"[5]; pH 7.4, time 30 min",104.3%
same,Area rel. [%] (GSH assay),"[5]; pH 7.4, time 90 min",98.0%
CCCCC/C=C/C(=O)N[C@@H](Cc1ccccc1)C(=O)N[C@H](/C=C/C(=O)O)CCCNC(=N)N [drawing 53],"Area rel. [%] (GSH assay, NC)",[5],101.8%
same,Area rel. [%] (GSH assay),"[5]; pH 7.4, time 30 min",102.7%
same,Area rel. [%] (GSH assay),"[5]; pH 7.4, time 90 min",106.2%
CCCCC/C=C/C(=O)N[C@H](Cc1ccc(O)cc1)C(=O)N[C@H](/C=C/C(=O)O)CCCNC(=N)N [drawing 55],"Area rel. [%] (GSH assay, NC)",[5],91.9%
same,Area rel. [%] (GSH assay),"[5]; pH 7.4, time 90 min",98.6%
CC(=O)N[C@@H](Cc1ccc(O)cc1)C(=O)N[C@H](/C=C/C(=O)O)CCCNC(=N)N [drawing 58],"Area rel. [%] (GSH assay, NC)",[5],108.9%
same,Area rel. [%] (GSH assay),"[5]; pH 7.4, time 90 min",112.8%
CCCCC/C=C/C(=O)N[C@@H](Cc1ccc(O)cc1)C(=O)N[C@H](/C=C/C(=O)O)CCCNC(=N)N [drawing 59],"Area rel. [%] (liver microsomes, NC)",[1],92.3%
CCCCC/C=C/C(=O)N[C@@H](Cc1ccc(O)cc1)C(=O)N[C@@H](/C=C/C(=O)O)CCCCN [drawing 60],"Area rel. [%] (liver microsomes, NC)",[1],95.7%
CCCCC/C=C/C(=O)N[C@@H](Cc1ccccc1)C(=O)N[C@H](/C=C/C(=O)O)CCCNC(=N)N [drawing 61],"Area rel. [%] (liver microsomes, NC)",[1],89.2%
CCCCC/C=C/C(=O)N[C@@H](Cc1ccc(O)cc1)C(=O)N[C@@H](/C=C/C(=O)O)CCCNC(=N)N [drawing 62],"Area rel. [%] (liver microsomes, NC)",[1],102.8%
CCCCC/C=C/C(=O)N[C@H](Cc1ccc(O)cc1)C(=O)N[C@H](/C=C/C(=O)O)CCCNC(=N)N [drawing 63],"Area rel. [%] (liver microsomes, NC)",[1],105.8%
CCCCCCCC(=O)N[C@@H](Cc1ccc(O)cc1)C(=O)N[C@H](/C=C/C(=O)O)CCCNC(=N)N [drawing 64],"Area rel. [%] (liver microsomes, NC)",[1],104.3%
CCCCCCCC(=O)N[C@@H](Cc1ccc(O)cc1)C(=O)N[C@@H](CCCNC(=N)N)CCC(=O)O [drawing 65],"Area rel. [%] (liver microsomes, NC)",[1],99.5%
CC(=O)N[C@@H](Cc1ccc(O)cc1)C(=O)N[C@H](/C=C/C(=O)O)CCCNC(=N)N [drawing 66],"Area rel. [%] (liver microsomes, NC)",[1],111.9%
"CC(C)CC(=O)N[C@H](C(=O)N[C@H](C(=O)N[C@@H](CC(C)C)[C@@H](O)CC(=O)N[C@@H](C)C(=O)N[C@@H](CC(C)C)[C@@H](O)CC(=O)O)C(C)C)C(C)C [pepstatin A, reference compound] (Isovaleryl-VV[Sta]A[Sta]-OH)","inhibited enzyme activity (pepsin), control inhibitor",[6],> 95%
